Test results reported in ChEMBL document CHEMBL1201862, “PubChem BioAssay data set” (2004).
The source made the active and inactive calls.

Tests used:
[1] = molecular target: T1, Short transient receptor potential channel 4 (Mus musculus, UniProt Q9QUQ5); test: mouse TRPC4 channel activators, dose response, cell-based, HEK293 TRPC4/mu-opioid, Fluo-4 calcium (AID 434937); type: functional
T1 sequence (Q9QUQ5 whole entry): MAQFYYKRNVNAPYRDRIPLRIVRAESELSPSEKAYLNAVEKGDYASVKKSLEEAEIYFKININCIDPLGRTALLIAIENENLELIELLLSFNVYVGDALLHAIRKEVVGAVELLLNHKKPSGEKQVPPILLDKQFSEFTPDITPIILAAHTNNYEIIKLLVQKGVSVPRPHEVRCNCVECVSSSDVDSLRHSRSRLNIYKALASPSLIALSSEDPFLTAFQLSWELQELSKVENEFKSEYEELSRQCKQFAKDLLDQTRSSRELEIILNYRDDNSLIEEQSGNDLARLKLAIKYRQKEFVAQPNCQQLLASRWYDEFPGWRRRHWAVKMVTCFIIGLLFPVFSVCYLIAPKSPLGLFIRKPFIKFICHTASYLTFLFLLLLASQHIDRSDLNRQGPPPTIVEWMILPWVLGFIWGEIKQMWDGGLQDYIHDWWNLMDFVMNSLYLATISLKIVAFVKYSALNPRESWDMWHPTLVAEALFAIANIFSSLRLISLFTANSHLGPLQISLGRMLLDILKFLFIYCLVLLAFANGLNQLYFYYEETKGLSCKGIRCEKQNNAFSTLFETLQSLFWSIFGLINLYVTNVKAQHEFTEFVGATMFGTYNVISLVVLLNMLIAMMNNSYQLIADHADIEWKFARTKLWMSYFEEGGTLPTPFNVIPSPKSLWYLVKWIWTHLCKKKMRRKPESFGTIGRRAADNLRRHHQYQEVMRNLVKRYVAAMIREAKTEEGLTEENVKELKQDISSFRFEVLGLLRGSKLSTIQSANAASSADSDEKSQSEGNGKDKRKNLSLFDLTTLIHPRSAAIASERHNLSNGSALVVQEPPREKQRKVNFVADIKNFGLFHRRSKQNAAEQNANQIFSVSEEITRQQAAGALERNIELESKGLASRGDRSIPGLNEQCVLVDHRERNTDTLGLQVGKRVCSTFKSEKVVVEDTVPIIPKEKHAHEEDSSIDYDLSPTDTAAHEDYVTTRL

[2] = molecular target: 5-hydroxytryptamine receptor 5A (Homo sapiens, UniProt P47898); test: Counterscreen for agonists of OPRM1-OPRD1 heterodimerization: luminescence-based cell-based high throughput dose response assay to identify agonists of 5-hydroxytryptamine (serotonin) 5A receptor (HTR5A). [Related pubchem assays (depositor defined):AID504326, AID504355, AID504692, AID504904, AID504905]; type: functional
[3] = molecular target: Delta-type opioid receptor (Homo sapiens, UniProt P41143); test: Counterscreen for agonists of heterodimerization of the mu 1 (OPRM1) and delta 1 (OPRD1) opioid receptors: Luminescence-based cell-based high throughput dose response assay to identify agonists of OPRD1 homodimerization. [Related pubchem assays (depositor defined):AID504326, AID504355, AID504692, AID504904, AID504905]; type: functional
Mu-type opioid receptor = Mu-type opioid receptor (Homo sapiens, UniProt P35372); test: Counterscreen for agonists of heterodimerization of the mu 1 (OPRM1) and delta 1 (OPRD1) opioid receptors: Luminescence-based cell-based high throughput dose response assay to identify agonists of OPRM1 homodimerization.; type: functional;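 also: U2OS cells expressing OPRM1 and beta-arrestin as split beta-galactosidase partners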
Hexokinase-1 [4] = molecular target: T2, Hexokinase-1 (Homo sapiens, UniProt P19367); test: SAR analysis of small molecule inhibitors of hexokinase domain containing I (HKDC1) in the hexokinase 1 selectivity assay. [Related pubchem assays (depositor defined):AID493160, AID493190]; type: functional
Hexokinase HKDC1 [5] = molecular target: T3, Hexokinase HKDC1 (Homo sapiens, UniProt Q2TB90); test: SAR analysis of small molecule inhibitors of hexokinase domain containing I (HKDC1). [Related pubchem assays (depositor defined):AID493160, AID493190]; type: functional
T3 sequence (Q2TB90 whole entry): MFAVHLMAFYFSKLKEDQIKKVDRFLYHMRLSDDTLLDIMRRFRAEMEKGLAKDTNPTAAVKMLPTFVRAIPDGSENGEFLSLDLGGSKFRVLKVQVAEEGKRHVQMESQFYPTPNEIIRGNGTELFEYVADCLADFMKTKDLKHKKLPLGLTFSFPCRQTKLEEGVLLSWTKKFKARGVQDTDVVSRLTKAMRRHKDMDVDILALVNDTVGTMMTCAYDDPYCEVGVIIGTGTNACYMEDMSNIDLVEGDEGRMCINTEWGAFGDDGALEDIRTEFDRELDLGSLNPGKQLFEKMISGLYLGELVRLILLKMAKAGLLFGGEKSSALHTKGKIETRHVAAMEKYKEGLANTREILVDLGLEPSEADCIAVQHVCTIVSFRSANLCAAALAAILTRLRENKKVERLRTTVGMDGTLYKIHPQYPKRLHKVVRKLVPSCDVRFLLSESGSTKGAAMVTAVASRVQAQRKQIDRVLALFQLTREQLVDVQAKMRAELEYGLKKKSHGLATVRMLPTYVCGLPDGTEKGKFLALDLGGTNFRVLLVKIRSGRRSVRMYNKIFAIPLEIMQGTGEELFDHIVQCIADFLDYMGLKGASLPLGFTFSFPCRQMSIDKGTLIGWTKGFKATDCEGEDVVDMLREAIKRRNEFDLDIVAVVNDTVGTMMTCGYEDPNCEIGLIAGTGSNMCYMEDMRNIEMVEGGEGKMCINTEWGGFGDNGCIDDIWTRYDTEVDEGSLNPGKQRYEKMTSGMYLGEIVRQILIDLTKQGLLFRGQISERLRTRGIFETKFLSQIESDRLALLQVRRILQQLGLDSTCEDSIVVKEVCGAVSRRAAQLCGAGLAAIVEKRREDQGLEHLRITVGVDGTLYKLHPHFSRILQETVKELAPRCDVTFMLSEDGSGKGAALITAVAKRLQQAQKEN

A-375 [6] = test: A375 melanoma cell viability reduction, dose response, counter-screen for MITF modulator project, cherry-pick samples, set 2 (AID 540335); type: functional, cell-based; details: Homo sapiens
A-375 [7] = test: MITF: Counter assay: A375 proliferation Measured in Cell-Based System Using Plate Reader - 2084-03_Inhibitor_Dose_DryPowder_Activity. [Related pubchem assays (depositor defined):AID488944]; type: functional; details: Homo sapiens
[8] = molecular target: T4, Microphthalmia-associated transcription factor (Homo sapiens, UniProt O75030); test: TRPM1 promoter luciferase signal decrease, dose response, MITF inhibitor project, cell-based, SK-MEL-5, cherry-picked, set 3 (AID 493073); type: functional
T4 sequence (O75030 whole entry): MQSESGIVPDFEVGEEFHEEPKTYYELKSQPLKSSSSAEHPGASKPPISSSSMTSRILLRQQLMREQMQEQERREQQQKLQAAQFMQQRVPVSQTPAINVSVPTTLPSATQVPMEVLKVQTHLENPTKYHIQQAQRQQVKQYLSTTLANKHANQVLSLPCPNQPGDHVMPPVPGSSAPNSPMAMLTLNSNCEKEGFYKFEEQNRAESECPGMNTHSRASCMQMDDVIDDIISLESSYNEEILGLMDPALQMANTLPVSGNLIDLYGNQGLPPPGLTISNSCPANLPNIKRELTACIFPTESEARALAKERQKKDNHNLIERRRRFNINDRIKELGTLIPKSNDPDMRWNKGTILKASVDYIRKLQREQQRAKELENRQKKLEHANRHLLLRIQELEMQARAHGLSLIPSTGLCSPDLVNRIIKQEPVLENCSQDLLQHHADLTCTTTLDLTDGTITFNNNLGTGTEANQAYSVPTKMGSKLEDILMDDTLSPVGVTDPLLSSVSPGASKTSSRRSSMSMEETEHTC

Hexokinase-1 [9] = molecular target: T2, Hexokinase-1; test: HK1 enzyme inhibition by HKDC1 hits, SAR follow-up, selectivity assay for HKDC1 inhibitor project, biochemical, set 2, resazurin fluorescence coupled readout (AID 588356); type: functional
Hexokinase HKDC1 [10] = molecular target: T3, Hexokinase HKDC1; test: HKDC1 hexokinase inhibitors, SAR follow-up, biochemical, set 2 (AID 588355); type: functional
Escherichia coli = test: microbe, parasite or virus in culture
[11] = molecular target: Voltage-gated inwardly rectifying potassium channel KCNH2 (Homo sapiens, UniProt Q12809); details: Potency;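 also: confirmatory quantitative high-throughput screen measuring inhibition of hERG channel activity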
Voltage-gated inwardly rectifying potassium channel KCNH2, sequence (Q12809 whole entry): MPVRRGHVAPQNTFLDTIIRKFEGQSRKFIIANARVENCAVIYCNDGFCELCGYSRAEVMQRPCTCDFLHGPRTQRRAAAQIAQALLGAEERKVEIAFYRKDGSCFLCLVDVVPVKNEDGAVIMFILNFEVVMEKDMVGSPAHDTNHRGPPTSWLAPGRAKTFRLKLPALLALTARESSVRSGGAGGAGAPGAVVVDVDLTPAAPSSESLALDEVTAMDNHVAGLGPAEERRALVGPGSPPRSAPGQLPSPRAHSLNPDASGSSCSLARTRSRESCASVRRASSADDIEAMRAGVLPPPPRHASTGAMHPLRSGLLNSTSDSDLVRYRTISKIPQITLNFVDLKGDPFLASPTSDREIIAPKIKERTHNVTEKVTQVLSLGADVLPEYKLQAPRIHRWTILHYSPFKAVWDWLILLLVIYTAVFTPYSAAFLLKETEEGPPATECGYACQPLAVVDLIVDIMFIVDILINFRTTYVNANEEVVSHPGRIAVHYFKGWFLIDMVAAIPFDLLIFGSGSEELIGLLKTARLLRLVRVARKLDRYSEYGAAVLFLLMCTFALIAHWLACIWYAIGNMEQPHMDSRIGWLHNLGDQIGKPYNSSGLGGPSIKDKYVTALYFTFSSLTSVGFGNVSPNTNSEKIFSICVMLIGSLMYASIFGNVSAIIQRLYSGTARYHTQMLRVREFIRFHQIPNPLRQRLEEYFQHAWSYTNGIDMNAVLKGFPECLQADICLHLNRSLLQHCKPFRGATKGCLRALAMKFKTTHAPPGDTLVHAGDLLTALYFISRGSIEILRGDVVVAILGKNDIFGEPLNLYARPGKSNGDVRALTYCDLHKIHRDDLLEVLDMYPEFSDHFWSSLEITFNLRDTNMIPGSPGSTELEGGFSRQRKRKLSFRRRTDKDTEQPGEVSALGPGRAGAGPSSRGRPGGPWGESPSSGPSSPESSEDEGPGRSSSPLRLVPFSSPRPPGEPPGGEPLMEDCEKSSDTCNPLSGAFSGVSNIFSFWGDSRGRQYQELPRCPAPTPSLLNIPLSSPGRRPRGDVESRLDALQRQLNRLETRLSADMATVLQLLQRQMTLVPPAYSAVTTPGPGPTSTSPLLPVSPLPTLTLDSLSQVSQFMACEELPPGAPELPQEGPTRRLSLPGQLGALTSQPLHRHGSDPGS

T2 sequence (P19367 whole entry, the tested form may be a part): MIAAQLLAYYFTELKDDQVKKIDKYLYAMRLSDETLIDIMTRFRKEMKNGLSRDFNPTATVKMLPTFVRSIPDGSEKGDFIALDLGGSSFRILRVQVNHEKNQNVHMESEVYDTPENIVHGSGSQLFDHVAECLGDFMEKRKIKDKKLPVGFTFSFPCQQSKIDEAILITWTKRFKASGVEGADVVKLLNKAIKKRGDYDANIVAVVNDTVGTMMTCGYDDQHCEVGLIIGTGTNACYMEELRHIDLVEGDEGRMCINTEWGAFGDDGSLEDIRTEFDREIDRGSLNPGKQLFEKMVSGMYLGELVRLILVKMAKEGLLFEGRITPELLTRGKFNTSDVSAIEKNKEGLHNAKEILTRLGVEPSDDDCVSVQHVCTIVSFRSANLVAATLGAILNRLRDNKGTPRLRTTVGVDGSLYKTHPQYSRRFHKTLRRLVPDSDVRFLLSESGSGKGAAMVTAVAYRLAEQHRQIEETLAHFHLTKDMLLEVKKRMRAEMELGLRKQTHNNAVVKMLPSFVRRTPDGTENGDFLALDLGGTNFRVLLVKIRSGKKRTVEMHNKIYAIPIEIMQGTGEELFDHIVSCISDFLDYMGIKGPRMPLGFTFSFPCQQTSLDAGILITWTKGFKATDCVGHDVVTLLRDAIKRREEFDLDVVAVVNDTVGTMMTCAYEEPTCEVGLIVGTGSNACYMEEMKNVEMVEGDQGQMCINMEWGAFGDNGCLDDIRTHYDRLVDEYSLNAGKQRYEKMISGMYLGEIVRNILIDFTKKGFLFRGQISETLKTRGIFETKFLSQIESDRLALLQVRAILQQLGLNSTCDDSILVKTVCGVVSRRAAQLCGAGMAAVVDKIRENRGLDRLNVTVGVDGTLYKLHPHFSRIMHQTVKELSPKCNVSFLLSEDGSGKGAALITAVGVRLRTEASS
Delta-type opioid receptor, sequence (P41143 whole entry): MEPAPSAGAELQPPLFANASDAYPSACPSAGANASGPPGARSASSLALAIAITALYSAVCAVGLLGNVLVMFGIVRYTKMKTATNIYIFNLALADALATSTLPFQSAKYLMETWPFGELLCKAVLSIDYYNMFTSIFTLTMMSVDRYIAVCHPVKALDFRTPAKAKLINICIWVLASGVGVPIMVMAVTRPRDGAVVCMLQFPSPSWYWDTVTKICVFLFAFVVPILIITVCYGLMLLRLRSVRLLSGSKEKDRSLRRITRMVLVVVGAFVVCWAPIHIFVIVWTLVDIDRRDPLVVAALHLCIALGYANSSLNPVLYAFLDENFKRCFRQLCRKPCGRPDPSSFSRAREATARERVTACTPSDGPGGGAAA
Mu-type opioid receptor, sequence (P35372 whole entry, the tested form may be a part): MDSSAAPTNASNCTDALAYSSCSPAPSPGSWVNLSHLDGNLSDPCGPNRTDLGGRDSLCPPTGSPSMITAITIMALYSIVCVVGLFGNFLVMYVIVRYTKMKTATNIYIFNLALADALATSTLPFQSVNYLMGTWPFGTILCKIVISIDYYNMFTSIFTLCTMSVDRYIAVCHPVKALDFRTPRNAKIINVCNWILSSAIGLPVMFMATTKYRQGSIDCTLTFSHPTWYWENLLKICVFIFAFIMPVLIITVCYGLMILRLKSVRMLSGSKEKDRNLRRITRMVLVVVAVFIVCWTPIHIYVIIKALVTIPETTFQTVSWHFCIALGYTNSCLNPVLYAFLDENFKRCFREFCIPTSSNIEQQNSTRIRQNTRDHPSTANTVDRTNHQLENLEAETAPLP
5-hydroxytryptamine receptor 5A, sequence (P47898 whole entry): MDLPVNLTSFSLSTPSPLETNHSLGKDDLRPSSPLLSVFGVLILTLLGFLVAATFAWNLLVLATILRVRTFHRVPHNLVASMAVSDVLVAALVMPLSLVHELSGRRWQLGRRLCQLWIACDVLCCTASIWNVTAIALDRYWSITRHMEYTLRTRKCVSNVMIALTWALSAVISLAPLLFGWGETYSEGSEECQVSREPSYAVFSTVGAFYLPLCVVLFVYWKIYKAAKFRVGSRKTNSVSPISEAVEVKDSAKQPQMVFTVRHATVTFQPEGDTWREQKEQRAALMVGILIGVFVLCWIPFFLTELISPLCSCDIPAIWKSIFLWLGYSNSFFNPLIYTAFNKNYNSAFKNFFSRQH

With CCC(=O)OC1(c2cccc(C)c2)CC(C)N(C)CC1C (stereo not drawn) the EC50 [1] was 0.335 µM (active), the EC50 [2] was > 92.5 µM (inactive) and the EC50 [3] was > 92.5 µM (inactive). For the same compound, the EC50 (Mu-type opioid receptor) was > 92.5 µM (inactive).

O=c1c2ccccc2nc(/C=C/c2cccnc2)n1Cc1ccc(Cl)cc1 was tested, and the IC50 (Hexokinase-1 [4]) was > 80 µM (inactive) and the IC50 (Hexokinase HKDC1 [5]) was > 80 µM (inactive).

CCOC(=O)Cn1cc([N+](=O)[O-])nc1[N+](=O)[O-] was tested, and the AC50 (A-375 [6]) was > 11 µM (active), the AC50 (A-375 [7]) was > 11 µM (active) and the AC50 [8] was 29.5 µM (active).

COc1cc2c(cc1OC)-c1cc(NCCO)nc(=O)n1CC2 was tested, and the IC50 (Hexokinase-1 [9]) was > 80 µM (inactive) and the IC50 (Hexokinase HKDC1 [10]) was > 80 µM (inactive).

For CN1CCN(C(=S)c2cn(Cc3ccc(Br)cc3)c3ccccc23)CC1, the AC50 (Escherichia coli) was 48.2 µM (active).

With CC(C)COC(=O)COc1cc(Cl)c(Cl)cc1Cl the AC50 [11] was 39.8 µM (inconclusive).
